From ChEMBL document CHEMBL3352251, “Structural factors affecting affinity of cytotoxic oxathiole-fused chalcones toward tubulin” (Eur J Med Chem, 2015)
Calls of active or inactive are those of the source. The rule behind the calls is not given here.

Tests used:
[1] = tested on: HeLa; assay: cells; conditions: Homo sapiens, 72 h
Description: Cytotoxicity against human HeLa cells after 72 hrs by MTT assay

[2] = tested on: A549; assay: cells; conditions: Homo sapiens, A549, 72 h
Description: Cytotoxicity against human A549 cells after 72 hrs by MTT assay

[3] = cells; conditions: Homo sapiens, HCT-116, 72 h
[4] = molecular target: Tubulin; assay: Inhibition of colchicine binding to tubulin (unknown origin); type: protein-complex assay, Homo sapiens
[5] = molecular target: Tubulin; assay: Inhibition of tubulin (unknown origin) polymerization after 1 hr by multiplate reader method; type: protein-complex assay, Homo sapiens
[6] = tested on: A549; assay: Increase in polyploid cells in human A549 cells at 1 uM after 24 to 72 hrs by propidium iodide staining based flow cytometry; type: functional, cell-based
[7] = molecular target: Tubulin (Homo sapiens) (UniProt P68371+Q9H4B7+P0DPH7+P68366+Q13509+Q71U36+P04350+Q3ZCM7+P07437+P68363+Q9BQE3+Q6PEY2+Q13885+Q9BVA1+Q9BUF5); assay: Inhibition of tubulin in human A549 cells assessed as disruption of microtubules at 1 uM incubated for 6 hrs by immunofluorescence staining; type: cell-based
[8] = tested on: A549; assay: Induction of cell cycle arrest in human A549 cells assessed as accumulation at G2/M phase accumulation at 1 uM after 48 hrs by propidium iodide staining based flow cytometry; type: functional
[9] = tested on: A549; assay: Induction of apoptosis in human A549 cells at 1 uM after 24 to 72 hrs by propidium iodide staining based flow cytometry; type: functional, cell-based
[10] = tested on: A549; assay: Induction of growth arrest in human A549 cells assessed as MPM2 levels level at 1 uM after 6 to 48 hrs by immunofluorescence microscopy; type: functional, cell-based
[11] = tested on: A549; assay: Induction of growth arrest in human A549 cells assessed as mitotic chromosomes level at 1 uM after 6 to 48 hrs by fluorescence microscopy; type: functional, cell-based

SMILES | IC50 [1] [nM] | IC50 [2] [nM] | IC50 [3] [nM] | other results
COc1cc2c(cc1C(=O)/C=C/c1cc(Br)c(OC)c(OC)c1)SCO2 | 4040 | 3430 | 2070 | –
COc1cc2c(cc1C(=O)/C=C/c1cccc(OC)c1OC)SCO2 | 4020 | 5040 | 3160 | –
COc1ccc(/C=C/C(=O)c2c(O)ccc3c2SCO3)cc1 | 7700 | 10600 | 6900 | –
CC(=O)O[C@H]1C(=O)[C@@]2(C)[C@H]([C@H](OC(=O)c3ccccc3)[C@]3(O)C[C@H](OC(=O)[C@H](O)[C@@H](NC(=O)c4ccccc4)c4ccccc4)C(C)=C1C3(C)C)[C@]1(OC(C)=O)CO[C@@H]1C[C@@H]2O [PACLITAXEL] | – | – | 4 | –
COc1ccc(/C=C/C(=O)c2cc3c(cc2OC)SCO3)cc1 | – | – | – | IC50 [4]: 108 nM; IC50 [5]: 4150 nM
COc1ccc(/C=C/C(=O)c2cc3c(cc2OCCN2CCOCC2)OCS3)cc1OC | 3730 | 3780 | 2290 | –
COc1cc2c(cc1C(=O)/C=C/c1ccc(Br)cc1)SCO2 | 2370 | 3120 | 2160 | –
CCCOc1cc2c(cc1C(=O)/C=C/c1ccc(OC)c(O)c1)OCS2 | – | 9 | – | –
COc1ccc(/C=C\c2cc(OC)c(OC)c(OC)c2)cc1O [COMBRETASTATIN A4] | 3 | – | 4 | –
COc1cccc2c1C(=O)c1c(O)c3c(c(O)c1C2=O)C[C@@](O)(C(=O)CO)C[C@@H]3O[C@H]1C[C@H](N)[C@H](O)[C@H](C)O1 [DOXORUBICIN] | 154 | 124 | 69 | –
COc1ccc(/C=C/C(=O)c2cc3c(cc2OCC(=O)O)OCS3)cc1 | > 10000 | > 10000 | > 10000 | –
COc1ccc(OC)c(/C=C/C(=O)c2cc3c(cc2OCCN2CCOCC2)OCS3)c1 | 2390 | 2720 | 1440 | –
COc1cc2c(cc1C(=O)/C=C/c1cc(OC)c(OC)c(OC)c1)SCO2 | 4060 | 3470 | 2230 | –
COc1ccc(/C=C/C(=O)c2cc3c(cc2OCCN2CCOCC2)OCS3)cc1F | 710 | 4290 | 1220 | –
COc1cc2c(cc1C(=O)/C=C/c1ccccc1)SCO2 | 1920 | 4100 | 2250 | –
COc1ccc(/C=C/C(=O)c2cc3c(cc2OC)OCS3)cc1OC | 568 | 1190 | 740 | –
CCCOc1cc2c(cc1C(=O)/C=C/c1ccc(OC)c(O)c1)SCO2 | 5 | 12 | 12 | –

The next lines start with results.

IC50 [1] [nM] | IC50 [2] [nM] | IC50 [3] [nM] | SMILES | other results
1550 | 1730 | 980 | O=C(/C=C/c1ccc(Cl)cc1Cl)c1cc2c(cc1OCCN1CCOCC1)OCS2 | –
3070 | 3070 | 1670 | O=C(/C=C/c1ccccc1Cl)c1c(O)ccc2c1SCO2 | –
6840 | 9430 | 6590 | COc1ccc(/C=C/C(=O)c2c(O)ccc3c2SCO3)cc1F | –
1780 | 3000 | 2090 | COc1cc2c(cc1C(=O)/C=C/c1ccc(Cl)cc1)SCO2 | –
111 | 320 | 209 | COc1ccc(/C=C/C(=O)c2cc3c(cc2OC)OCS3)cc1F | –
> 10000 | > 10000 | > 10000 | COc1cc(/C=C/C(=O)c2cc3c(cc2OCC(=O)O)OCS3)cc(OC)c1OC | –
2750 | 3660 | 2210 | O=C(/C=C/c1ccccc1)c1c(O)ccc2c1SCO2 | –
1970 | 3400 | 2540 | COc1cc2c(cc1C(=O)/C=C/c1ccc(CCN(C)C)cc1)SCO2 | –
4550 | 5670 | 2820 | COc1ccc(/C=C/C(=O)c2c(O)ccc3c2SCO3)cc1OC | –
3260 | 9080 | 8570 | COc1cc2c(cc1C(=O)/C=C/c1ccc(O)cc1)SCO2 | –
– | 22 | – | COc1ccc(/C=C/C(=O)c2cc3c(cc2OC)SCO3)cc1O | –
1440 | 2040 | 1180 | COc1cc2c(cc1C(=O)/C=C/c1cccc(Cl)c1)SCO2 | –
152 | 308 | 352 | COc1cc(OC)c(/C=C/C(=O)c2cc3c(cc2OC)OCS3)c(OC)c1 | –
109 | 352 | 275 | COc1ccc(/C=C/C(=O)c2cc3c(cc2OC)OCS3)cc1 | Activity [6]: Active; inhibition [7]: Active; Activity [8]: Active; Activity [9]: Active; IC50 [4]: 489 nM; IC50 [5]: 5800 nM; Activity [10]: Active; Activity [11]: Active
2650 | 3910 | 2870 | O=C(/C=C/c1ccc(Br)cc1)c1c(O)ccc2c1SCO2 | –
2370 | 2420 | 1440 | COc1cc(/C=C/C(=O)c2cc3c(cc2OCCN2CCOCC2)OCS3)cc(OC)c1OC | –
> 10000 | > 10000 | > 10000 | COc1cc2c(cc1C(=O)/C=C/c1ccc(OCC(=O)O)cc1)SCO2 | –
1530 | 2050 | 1470 | CN(C)CCOc1ccc(/C=C/C(=O)c2c(O)ccc3c2SCO3)cc1 | –
2010 | 2610 | 1310 | O=C(/C=C/c1cccc(Cl)c1)c1c(O)ccc2c1SCO2 | –
> 10000 | > 10000 | > 10000 | COc1cc(OC)c(/C=C/C(=O)c2cc3c(cc2OCC(=O)O)OCS3)c(OC)c1 | –
